Measured values from patent US20240383869A1, “ARYLACETYL INHIBITORS OF TG2 AND USES THEREOF” (UNIVERSITY OF OTTAWA, priority 2021, published 2024).

Columns and labels:
hTG1 = target: T1, hTG1 (Homo sapiens, UniProt P22735); test: Colorimetric transamidase activity assay, isozyme selectivity; format: biochemical; settings: normalized [I]/α
T1 sequence (P22735 1-817): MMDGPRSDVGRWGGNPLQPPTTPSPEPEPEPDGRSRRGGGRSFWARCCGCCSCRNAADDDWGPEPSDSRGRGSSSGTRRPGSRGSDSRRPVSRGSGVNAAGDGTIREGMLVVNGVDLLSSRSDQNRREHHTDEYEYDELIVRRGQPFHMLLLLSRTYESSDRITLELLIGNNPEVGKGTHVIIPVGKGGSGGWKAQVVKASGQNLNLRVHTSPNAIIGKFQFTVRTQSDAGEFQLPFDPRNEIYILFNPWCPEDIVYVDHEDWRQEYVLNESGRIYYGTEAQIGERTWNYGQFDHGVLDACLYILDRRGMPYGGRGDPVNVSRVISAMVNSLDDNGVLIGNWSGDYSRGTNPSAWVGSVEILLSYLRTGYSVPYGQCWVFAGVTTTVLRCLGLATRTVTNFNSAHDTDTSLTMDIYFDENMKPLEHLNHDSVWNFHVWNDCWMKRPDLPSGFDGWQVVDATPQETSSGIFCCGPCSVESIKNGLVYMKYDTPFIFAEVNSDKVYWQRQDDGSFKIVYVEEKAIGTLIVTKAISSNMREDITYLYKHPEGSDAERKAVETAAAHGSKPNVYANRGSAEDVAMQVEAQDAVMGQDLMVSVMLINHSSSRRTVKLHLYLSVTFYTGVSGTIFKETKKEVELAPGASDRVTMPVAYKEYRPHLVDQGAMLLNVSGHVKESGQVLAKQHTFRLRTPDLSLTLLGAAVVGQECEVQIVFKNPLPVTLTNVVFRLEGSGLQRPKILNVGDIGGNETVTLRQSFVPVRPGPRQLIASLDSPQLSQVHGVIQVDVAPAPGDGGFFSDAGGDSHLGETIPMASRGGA
Method: (§1) Colorimetric transamidase activity assay. The activities of hTG1, hTG2 and hTG6 were measured via a colorimetric assay using the chromogenic substrate Cbz-Glu(γ-p-nitrophenyl ester)Gly (AL5), as described (Leblanc, A. et al., “Kinetic studies of guinea pig liver transglutaminase reveal a general-base-catalyzed deacylation mechanism.” Biochemistry 2001, 40 (28), 8335-8342). Assays were conducted at 25° C. in 50 mM MOPS buffer (pH 6.95) containing 7.5 mM CaCl2. […] Stock solutions of the inhibitors were made in water ranging in concentration from 100-500 μM. The reaction was initiated with the addition of enzyme, 0.10 μM hTG1, 0.25 μM hTG2 (4.6 mU/mL) or 0.32 μM hTG6. Formation of hydrolysis product, p-nitrophenolate (pNP), was monitored at 405 nm in a polystyrene 96-well microplate using a BioTek Synergy 4 plate reader. The observed first-order rate constants of inactivation (kobs) were determined via non-linear regression fit to a mono-exponential model (Eqn 1) of absorbance versus time curves. These rate constants (kobs) were in turn fit to a saturation kinetics model (Eqn 2), by non-linear regression, providing the kinetic parameters kinact and KI, as previously described by Stone and Hofsteenge (Stone, S. R. and Hofsteenge, J., “Specificity of activated human protein C.” Biochem. J. 1985, 230 (2), 497-502). […] Experiments were completed in triplicate at minimum.

hTG6 = target: T2, hTG6 (Homo sapiens, UniProt O95932); test: as above; format: biochemical; settings: normalized [I]/α
T2 sequence (O95932 1-706): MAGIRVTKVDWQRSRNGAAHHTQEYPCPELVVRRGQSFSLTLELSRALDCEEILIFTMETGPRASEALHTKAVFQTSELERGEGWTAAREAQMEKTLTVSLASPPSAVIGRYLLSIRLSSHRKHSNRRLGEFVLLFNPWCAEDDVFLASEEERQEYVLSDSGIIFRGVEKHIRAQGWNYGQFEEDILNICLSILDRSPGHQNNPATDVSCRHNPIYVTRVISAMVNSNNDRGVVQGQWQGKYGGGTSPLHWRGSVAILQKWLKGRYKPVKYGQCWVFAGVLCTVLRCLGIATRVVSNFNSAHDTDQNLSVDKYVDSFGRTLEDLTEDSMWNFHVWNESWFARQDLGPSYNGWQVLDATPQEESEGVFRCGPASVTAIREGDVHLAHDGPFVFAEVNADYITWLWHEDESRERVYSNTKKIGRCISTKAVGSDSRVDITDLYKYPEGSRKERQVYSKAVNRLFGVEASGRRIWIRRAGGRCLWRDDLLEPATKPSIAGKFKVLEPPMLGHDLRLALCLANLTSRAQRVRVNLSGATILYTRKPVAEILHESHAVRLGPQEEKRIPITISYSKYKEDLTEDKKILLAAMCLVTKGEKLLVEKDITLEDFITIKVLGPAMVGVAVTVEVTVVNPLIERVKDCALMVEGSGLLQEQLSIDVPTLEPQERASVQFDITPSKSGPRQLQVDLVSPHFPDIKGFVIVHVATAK
Method: as §1

| Compound | inhibition of TG1 (hTG1) | inhibition of TG6 (hTG6) |
| --- | --- | --- |
| C=CC(=O)NCCCC[C@H](NC(=O)Cc1ccccc1C)C(=O)N1CCN(C(=O)c2cccc3ccccc23)CC1 [Inhibitor 74, (S)-N-(6-(4-(1-naphthoyl)piperazin-1-yl)-5-(2-(2-methylphenyl)acetamido)-6-oxohexyl)acrylamide] | none of these inhibitors showed any detectable inhibition | none of these inhibitors showed any detectable inhibition |
| C=CC(=O)NCCCC[C@H](NC(=O)OCc1ccccc1)C(=O)N1CCN(C(=O)c2cccc3ccccc23)CC1 [AA9, reference compound] | none of these inhibitors showed any detectable inhibition | none of these inhibitors showed any detectable inhibition |
| C=CC(=O)NCCCC[C@H](NC(=O)Cc1ccccc1F)C(=O)N1CCN(C(=O)c2cccc3ccccc23)CC1 [Inhibitor 72, (S)-N-(6-(4-(1-naphthoyl)piperazin-1-yl)-5-(2-(2-fluorophenyl)acetamido)-6-oxohexyl)acrylamide] | none of these inhibitors showed any detectable inhibition | none of these inhibitors showed any detectable inhibition |
